# From paper PMC5304190, “Inhibitory effects of cholinesterase inhibitor donepezil on the Kv1.5 potassium channel” (Scientific Reports, 2017)
# Target: T1, Kv1.5 (Rattus norvegicus, UniProt P19024)
# T1 construct: gene Kcna5; Rat Kv1.5 in pEYFP-N1 vector, expressed in HEK293 cells
# Assay: whole-cell patch clamp of Kv1.[…] expressed in HEK293 cells
# Type: cell-based
# T1 sequence (P19024 whole entry): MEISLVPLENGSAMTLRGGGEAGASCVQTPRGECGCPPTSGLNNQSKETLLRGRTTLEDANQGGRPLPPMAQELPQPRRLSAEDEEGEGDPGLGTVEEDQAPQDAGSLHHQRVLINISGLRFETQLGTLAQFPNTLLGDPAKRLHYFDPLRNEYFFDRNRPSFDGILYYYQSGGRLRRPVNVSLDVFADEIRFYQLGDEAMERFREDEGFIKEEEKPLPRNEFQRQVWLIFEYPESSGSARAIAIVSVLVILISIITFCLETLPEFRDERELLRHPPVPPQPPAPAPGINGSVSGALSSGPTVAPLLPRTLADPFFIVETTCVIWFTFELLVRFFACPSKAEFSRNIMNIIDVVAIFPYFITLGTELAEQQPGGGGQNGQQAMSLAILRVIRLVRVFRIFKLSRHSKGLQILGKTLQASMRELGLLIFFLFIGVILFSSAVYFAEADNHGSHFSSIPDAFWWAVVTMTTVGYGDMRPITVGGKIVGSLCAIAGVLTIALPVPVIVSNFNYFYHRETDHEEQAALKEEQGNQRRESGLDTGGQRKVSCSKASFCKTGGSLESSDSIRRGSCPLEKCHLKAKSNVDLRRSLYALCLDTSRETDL
structure (smiles),measurement,value
COc1cc2c(cc1OC)C(=O)C(CC1CCN(Cc3ccccc3)CC1)C2 (stereo not shown) [donepezil],IC50,72.5 ± 0.5 µM
